Measurements: PubChem BioAssay AID1919010 (Molecular Pharmacology Branch, DTP, NCI, 2023)

Tested on: Hs578T complex spheroid growth, percent test/control
Assay: Anticancer human tumor Hs578T cell line growth inhibition [AhR];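 also: luminescent viability signal as a proxy for spheroid growth; spheroids exposed to agents for one week after three days of growth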
Settings: for IC50: curve of first compound; for viability, T/C: stronger effect = lower value
Summary of the method: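 Spheroids combined tumor cells with HUVEC endothelial cells and human MSCs as stroma. AhR antagonists were paired with standard or investigational drugs, each dosed in half-log steps down from near clinical Cmax, or from 10 microM where Cmax was unknown.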

[1] = second compound 0.1 µM, first compound 0.00949 µM
[2] = second compound 0.1 µM, first compound 0.03 µM
[3] = second compound 0.1 µM, first compound 0.0949 µM
[4] = second compound 0.1 µM, first compound 0.3 µM
[5] = second compound 0.316 µM, first compound 0.00949 µM
[6] = second compound 0.316 µM, first compound 0.03 µM
[7] = second compound 0.316 µM, first compound 0.0949 µM
[8] = second compound 0.316 µM, first compound 0.3 µM
[9] = second compound 1 µM, first compound 0.00949 µM
[10] = second compound 1 µM, first compound 0.03 µM
[11] = second compound 1 µM, first compound 0.0949 µM
[12] = second compound 1 µM, first compound 0.3 µM
[13] = second compound 3.16 µM, first compound 0.00949 µM
[14] = second compound 3.16 µM, first compound 0.03 µM
[15] = second compound 3.16 µM, first compound 0.0949 µM
[16] = second compound 3.16 µM, first compound 0.3 µM
[17] = second compound 10 µM, first compound 0.00949 µM
[18] = second compound 10 µM, first compound 0.03 µM
[19] = second compound 10 µM, first compound 0.0949 µM
[20] = second compound 10 µM, first compound 0.3 µM

Structure (SMILES) | IC50 (second compound 0.1 µM) [nM] | IC50 (second compound 0.316 µM) [nM] | IC50 (second compound 1 µM) [nM] | IC50 (second compound 3.16 µM) [nM] | IC50 (second compound 10 µM) [nM] | viability, T/C [1] [%] | viability, T/C [2] [%] | viability, T/C [3] [%] | viability, T/C [4] [%] | viability, T/C [5] [%] | viability, T/C [6] [%] | viability, T/C [7] [%] | viability, T/C [8] [%] | viability, T/C [9] [%] | viability, T/C [10] [%] | viability, T/C [11] [%] | viability, T/C [12] [%] | viability, T/C [13] [%] | viability, T/C [14] [%] | viability, T/C [15] [%] | other results
CCN(c1cc(-c2ccc(CN3CCOCC3)cc2)cc(C(=O)NCc2c(C)cc(C)[nH]c2=O)c1C)C1CCOCC1 + Cc1ccccc1N=Nc1ccc(NC(=O)c2ccnn2C)c(C)c1 | > 3000 | > 3000 | > 3000 | > 3000 | > 3000 | 97.5 | 103 | 94.1 | 99.4 | 106 | 107 | 104 | 111 | 99.9 | 106 | 104 | 99.7 | 95.3 | 88 | 98.6 | viability, T/C (second compound 0.1 µM, first compound 0.949 µM): 94.4%; viability, T/C (second compound 0.1 µM, first compound 3 µM): 93%; viability, T/C (second compound 0.316 µM, first compound 0.949 µM): 108%; viability, T/C (second compound 0.316 µM, first compound 3 µM): 93.8%; viability, T/C (second compound 1 µM, first compound 0.949 µM): 102%; viability, T/C (second compound 1 µM, first compound 3 µM): 94.9%; viability, T/C [16]: 83.2%; viability, T/C (second compound 3.16 µM, first compound 0.949 µM): 89.8%; viability, T/C (second compound 3.16 µM, first compound 3 µM): 82.7%; viability, T/C [17]: 63.9%; viability, T/C [18]: 67.5%; viability, T/C [19]: 74%; viability, T/C [20]: 66.8%; viability, T/C (second compound 10 µM, first compound 0.949 µM): 64%; viability, T/C (second compound 10 µM, first compound 3 µM): 67%
Nc1ncn(C2CC(O)C(CO)S2)c(=O)n1 (stereo not given) + Cc1ccccc1N=Nc1ccc(NC(=O)c2ccnn2C)c(C)c1 | > 300 | > 300 | > 300 | > 300 | > 300 | 102 | 99.8 | 98.1 | 85 | 103 | 102 | 94.3 | 96.5 | 106 | 90.5 | 94.8 | 84 | 94.7 | 83.9 | 90.7 | viability, T/C (second compound 0.1 µM, first compound 0.000949 µM): 103%; viability, T/C (second compound 0.1 µM, first compound 0.003 µM): 109%; viability, T/C (second compound 0.316 µM, first compound 0.000949 µM): 117%; viability, T/C (second compound 0.316 µM, first compound 0.003 µM): 101%; viability, T/C (second compound 1 µM, first compound 0.000949 µM): 106%; viability, T/C (second compound 1 µM, first compound 0.003 µM): 112%; viability, T/C (second compound 3.16 µM, first compound 0.000949 µM): 83%; viability, T/C (second compound 3.16 µM, first compound 0.003 µM): 98.8%; viability, T/C [16]: 87.2%; viability, T/C (second compound 10 µM, first compound 0.000949 µM): 65.3%; viability, T/C (second compound 10 µM, first compound 0.003 µM): 67%; viability, T/C [17]: 68%; viability, T/C [18]: 64%; viability, T/C [19]: 69.1%; viability, T/C [20]: 66.6%
